Assay: rectal (body) temperature of mice measured with medicinal electrothermometer TREM-1
Assay type: in vivo, mice of the BALB line
Protocol: In all cases tests were carried out on mice of the BALB line of 3-4 month age. […] In the case of water-soluble compounds, aqueous solutions of the test compounds were injected intraperitoneally (i.p.), while water-insoluble compounds were introduced orally (p.o.).
Rectal temperature changes (absolute magnitues in ° C.) were measured using a medicinal electrothermometer TREM-1 (Table 1). The rate of oxygen consumption was monitored by measuring concentration of oxygen in a closed testing unit with optic-acoustic gas analyser MN 5130. The data on oxygen consumption are given in percents relative to the starting content of oxygen taken as 100%. (Table 2).
Rectal temperature of mice was followed in dynamics after 5, 15, 30, 60, 120, 180, 240, 300, and 360 minutes (Table 3). […] The same decrease in temperature at 190 mg/kg dosage was reached after 15 minutes; in 1.5 hours it reached 22-25° C. and maintained this level over the next 5 hours, that is 13-17° C. below the initial value. After one day, body temperature was restored to the value of 94-96% of initial.

[1] = i.p., 0 min, mg/kg: cpd 1 190.0, cpd 2 178.0, cpd 5 190.0, cpd 6 160.0
[2] = i.p., 30 min, mg/kg: cpd 1 190.0, cpd 2 178.0, cpd 5 190.0, cpd 6 160.0
[3] = i.p., 60 min, mg/kg: cpd 1 190.0, cpd 2 178.0, cpd 5 190.0, cpd 6 160.0
[4] = i.p., 90 min, mg/kg: cpd 1 190.0, cpd 2 178.0, cpd 6 160.0
[5] = i.p., 120 min, mg/kg: cpd 1 190.0, cpd 2 178.0, cpd 5 190.0, cpd 6 160.0
[6] = i.p., 180 min, mg/kg: cpd 1 190.0, cpd 2 178.0, cpd 5 190.0, cpd 6 160.0
[7] = i.p., 240 min, mg/kg: cpd 1 190.0, cpd 2 178.0, cpd 5 190.0, cpd 6 160.0
[8] = i.p., 300 min, mg/kg: cpd 1 190.0, cpd 2 178.0, cpd 6 160.0
[9] = p.o., 0 min, mg/kg: cpd 4 437.0, cpd 5 328.0, cpd 6 407.0, cpd 8 435.0
[10] = p.o., 30 min, mg/kg: cpd 4 437.0, cpd 5 328.0, cpd 6 407.0, cpd 8 435.0
[11] = p.o., 60 min, mg/kg: cpd 4 437.0, cpd 5 328.0, cpd 6 407.0, cpd 8 435.0
[12] = p.o., 90 min, mg/kg: cpd 4 437.0, cpd 5 328.0, cpd 6 407.0
[13] = p.o., 120 min, mg/kg: cpd 4 437.0, cpd 5 328.0, cpd 7 407.0, cpd 8 435.0
[14] = p.o., 180 min, mg/kg: cpd 4 437.0, cpd 7 407.0, cpd 8 435.0
[15] = p.o., 240 min, mg/kg: cpd 4 437.0, cpd 7 407.0, cpd 8 435.0
[16] = p.o., 300 min, mg/kg: cpd 7 407.0, cpd 8 435.0

SMILES | body temperature [1] [°C] | body temperature [2] [°C] | body temperature [3] [°C] | body temperature [4] [°C] | body temperature [5] [°C] | body temperature [6] [°C] | body temperature [7] [°C] | body temperature [8] [°C] | body temperature [9] [°C] | body temperature [10] [°C] | body temperature [11] [°C] | body temperature [12] [°C] | body temperature [13] [°C] | body temperature [14] [°C] | body temperature [15] [°C] | body temperature [16] [°C]
CS(=O)(=O)O.c1ccc(C2=NN=C(N3CCOCC3)SC2)cc1 [Compound 2, 2-Morpholino-5-phenyl-6H-1,3,4-thiadiazine, mesilate] | 38.0 | 30.1 | 26.7 | 25.5 | 26.9 | 31.0 | 35.4 | 35.4 |  |  |  |  |  |  |  | 
Br.Brc1cccc(C2=NN=C(N3CCOCC3)SC2)c1 [Compound 4, 2-Morpholino-5-(3-bromophenyl)-6H-1,3,4-thiadiazine, hydrobromide] |  |  |  |  |  |  |  |  | 38.0 | 35.9 | 33.8 | 33.5 | 32.9 | 33.1 | 32.8 | 
Br.c1ccc(C2=NN=C(N3CCSCC3)SC2)cc1 [Compound 5, 2-Thiomorpholino-5-phenyl-6H-1,3,4-thiadiazine, hydrobromide] | 38.0 | 28.0 | 27.1 |  | 25.0 | 23.3 | 23.6 |  | 38.0 | 27.5 | 26.0 | 24.0 | 24.0 |  |  | 
CS(=O)(=O)O.c1ccc(C2=NN=C(N3CCSCC3)SC2)cc1 [Compound 6, 2-Thiomorpholino-5-phenyl-6H-1,3,4-thiadiazine, mesilate] | 37.9 | 30.6 | 26.9 | 26.3 | 25.8 | 27.4 | 28.9 | 30.9 | 37.7 | 34.0 | 33.4 | 32.6 |  |  |  | 
Br.CCOc1ccc(C2=NN=C(N3CCSCC3)SC2)cc1 [Compound 7, 2-Thiomorpholino-5-(4-ethoxyphenyl)-6H-1,3,4-thiadiazine, hydrobromide] |  |  |  |  |  |  |  |  |  |  |  |  | 33.5 | 32.3 | 30.6 | 30.6
Br.Brc1cccc(C2=NN=C(N3CCSCC3)SC2)c1 [Compound 8, 2-Thiomorpholino-5-(3-bromophenyl)-6H-1,3,4-thiadiazine, hydrobromide] |  |  |  |  |  |  |  |  | 38.1 | 35.2 | 35.0 |  | 33.4 | 33.5 | 32.3 | 33.9
